Laboratory results as given in US9630963B2, “Quinolone derivatives as fibroblast growth factor inhibitors” (Principia Biopharma, Inc., priority 2013, dated 2017).
pIC50: −log10 of the molar value.

Experiments:
human recombinant FGFR1 = human recombinant FGFR1 (Homo sapiens, UniProt P11362); test: FGFR family enzymatic activity assay (Caliper-based kinase assay), FGFR1; format: biochemical; details: FGFR1 0.5 nM, ATP 100 μM, peptide substrate 1 μM, room temperature 3 h
Description: A Caliper-based kinase assay (Caliper Life Sciences, Hopkinton, Mass.) was used to measure inhibition of FGFR family (FGFR1, FGFR2, FGFR3, FGFR4) kinase activity of a compound of Formula (I′) or (I). […] This value is presented as the IC50.

SNU-16 cells = test: Inhibition of FGFR2-dependent cell growth (Cell-titer Glo); format: cell-based; details: Homo sapiens, SNU16 cells, 72 hrs incubation, cell viability by Cell-titer Glo
Method: The cell-based effects of FGFR inhibitors were determined by measuring inhibition of FGFR-dependent cell line growth. […] Percent inhibition of cell growth was calculated as a percentage of untreated cell viability. The percent inhibition was plotted as a function of log compound concentration. The IC50 was then calculated for each compound using Prism software from GraphPad.

Chain of human recombinant FGFR1 (P11362 22-822): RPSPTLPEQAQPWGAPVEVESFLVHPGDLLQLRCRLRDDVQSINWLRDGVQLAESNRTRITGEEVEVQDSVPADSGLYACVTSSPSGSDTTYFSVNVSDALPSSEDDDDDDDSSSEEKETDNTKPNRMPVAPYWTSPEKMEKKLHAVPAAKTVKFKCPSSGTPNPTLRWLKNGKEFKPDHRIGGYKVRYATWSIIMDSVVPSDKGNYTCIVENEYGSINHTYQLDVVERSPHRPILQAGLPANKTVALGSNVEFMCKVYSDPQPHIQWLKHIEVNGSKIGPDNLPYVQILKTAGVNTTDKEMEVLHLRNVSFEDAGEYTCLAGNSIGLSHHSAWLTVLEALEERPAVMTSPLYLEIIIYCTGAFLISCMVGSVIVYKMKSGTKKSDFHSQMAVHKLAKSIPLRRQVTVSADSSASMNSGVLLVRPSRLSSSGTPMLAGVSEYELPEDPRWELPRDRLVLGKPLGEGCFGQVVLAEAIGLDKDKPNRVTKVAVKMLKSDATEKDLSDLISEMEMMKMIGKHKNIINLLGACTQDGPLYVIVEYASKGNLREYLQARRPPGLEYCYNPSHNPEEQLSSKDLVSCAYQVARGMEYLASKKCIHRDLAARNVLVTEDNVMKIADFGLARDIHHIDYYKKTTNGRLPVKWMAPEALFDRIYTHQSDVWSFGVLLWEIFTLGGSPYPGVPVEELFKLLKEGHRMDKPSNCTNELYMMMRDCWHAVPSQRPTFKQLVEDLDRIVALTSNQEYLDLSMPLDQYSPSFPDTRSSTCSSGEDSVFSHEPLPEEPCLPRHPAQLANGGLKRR

Compound	pIC50 (human recombinant FGFR1)	pIC50 (SNU-16 cells)
C=CC(=O)Nc1ccc(CCn2c(=O)c(-c3cc(OC)cc(OC)c3Cl)cc3cnc(NCCn4ccnc4)nc32)cc1 [Example 50, N-(4-(2-(2-((2-(1H-imidazol-1-yl)ethyl)amino)-6-(2-chloro-3,5-dimethoxyphenyl)-7-oxopyrido[2,3-d]pyrimidin-8(7H)-yl)ethyl)phenyl)acrylamide]	8.13	7.93
C=CC(=O)Nc1ccc(CCn2c(=O)c(-c3cc(OC)cc(OC)c3Cl)cc3cnc(NCCN4[C@H](C)CNC[C@@H]4C)nc32)cc1 [Example 82, N-(4-(2-(6-(2-chloro-3,5-dimethoxyphenyl)-2-((2-((2R,6S)-2,6-dimethylpiperazin-1-yl)ethyl)amino)-7-oxopyrido[2,3-d]pyrimidin-8(7H)-yl)ethyl)phenyl)acrylamide]	9.30	7.15
C=CC(=O)Nc1ccc(CCn2c(=O)c(-c3c(Cl)c(OC)cc(OC)c3Cl)cc3cnc(NCC(O)CO)nc32)nc1 (centres unmarked) [Example 88, N-(6-(2-(6-(2,6-dichloro-3,5-dimethoxyphenyl)-2-((2,3-dihydroxypropyl)amino)-7-oxopyrido[2,3-d]pyrimidin-8(7H)-yl)ethyl)pyridin-3-yl)acrylamide]	9.22	7.61
C=CC(=O)Nc1ccc(CCn2c(=O)c(-c3c(Cl)c(OC)cc(OC)c3Cl)cc3cnc(NC(CC)(CO)CO)nc32)cc1 [Example 92, N-(4-(2-(6-(2,6-dichloro-3,5-dimethoxyphenyl)-2-((1-hydroxy-2-(hydroxymethyl)-butan-2-yl)amino)-7-oxopyrido[2,3-d]pyrimidin-8(7H)-yl)ethyl)phenyl)acrylamide]	8.96	8.20
C=CC(=O)Nc1nc(CCn2c(=O)c(-c3cc(OC)cc(OC)c3Cl)cc3cnc(NC)nc32)cs1 [Example 33, N-(4-(2-(6-(2-chloro-3,5-dimethoxyphenyl)-2-(methylamino)-7-oxopyrido[2,3-d]-pyrimidin-8(7H)-yl)ethyl)thiazol-2-yl)acrylamide]	8.39	7.49
C#CCNc1ncc2cc(-c3cc(OC)cc(OC)c3Cl)c(=O)n(CCc3ccc(NC(=O)C=C)cn3)c2n1 [Example 59, N-(6-(2-(6-(2-chloro-3,5-dimethoxyphenyl)-7-oxo-2-(prop-2-yn-1-ylamino)pyrido-[2,3-d]pyrimidin-8(7H)-yl)ethyl)pyridin-3-yl)acrylamide]	9.30	9.22
C=CC(=O)Nc1ccc(CCn2c(=O)c(-c3cc(OC)cc(OC)c3Cl)cc3cnc(NCCN4CCN(C5COC5)CC4)nc32)cc1 [Example 78, N-(4-(2-(6-(2-chloro-3,5-dimethoxyphenyl)-2-((2-(4-(oxetan-3-yl)piperazin-1-yl)ethyl)amino)-7-oxopyrido[2,3-d]pyrimidin-8(7H)-yl)ethyl)phenyl)acrylamide]	9.05	8.52
C=CC(=O)Nc1ccc(CCn2c(=O)c(-c3cc(OC)cc(OC)c3Cl)cc3cnc(NCCN4C[C@@H](C)O[C@@H](C)C4)nc32)cc1 [Example 58, N-(4-(2-(6-(2-chloro-3,5-dimethoxyphenyl)-2-((2-((2R,6S)-2,6-dimethyl-morpholino)ethyl)-amino)-7-oxopyrido[2,3-d]pyrimidin-8(7H)-yl)ethyl)phenyl)acrylamide]	8.89	9.10
C=CC(=O)Nc1ccc(CCn2c(=O)c(-c3cc(OC)cc(OC)c3Cl)cc3cnc(NC(C)(C)CN4CCOCC4)nc32)cc1 [Example 67, N-(4-(2-(6-(2-chloro-3,5-dimethoxyphenyl)-2-((2-methyl-1-morpholinopropan-2-yl)amino)-7-oxopyrido[2,3-d]pyrimidin-8(7H)-yl)ethyl)phenyl)acrylamide]	8.64	8.01
C=CC(=O)Nc1cccc(CCn2c(=O)c(-c3cc(OC)cc(OC)c3)cc3cnc(NC)nc32)n1 [Example 11, N-(6-(2-(6-(3,5-dimethoxyphenyl)-2-(methylamino)-7-oxopyrido[2,3-d]pyrimidin-8(7H)-yl)ethyl)pyridin-2-yl)acrylamide]	7.65	7.03
C=CC(=O)Nc1ccc(CCn2c(=O)c(-c3c(Cl)c(OC)cc(OC)c3Cl)cc3cnc(NCC(C)(C)O)nc32)nc1 [Example 84, N-(6-(2-(6-(2,6-dichloro-3,5-dimethoxyphenyl)-2-((2-hydroxy-2-methylpropyl)-amino)-7-oxopyrido[2,3-d]pyrimidin-8(7H)-yl)ethyl)pyridin-3-yl)acrylamide]	9.15	7.84
C=CC(=O)Nc1ccc(CCn2c(=O)c(-c3cc(OC)cc(OC)c3Cl)cc3cnc(NCCN4CCN(C(C)C)CC4)nc32)cc1 [Example 57, N-(4-(2-(6-(2-chloro-3,5-dimethoxyphenyl)-2-((4-isopropylpiperazin-1-yl-ethyl)amino)-7-oxopyrido[2,3-d]pyrimidin-8(7H)-yl)ethyl)phenyl)acylamide]	9.40	9.40
CNc1ncc2cc(-c3cc(OC)cc(OC)c3Cl)c(=O)n(CCc3cccc(NC(=O)/C=C/CN(C)C)c3)c2n1 [Example 23, (E)-N-(3-(2-(6-(2-chloro-3,5-dimethoxyphenyl)-2-(methylamino)-7-oxopyrido[2,3-d]pyrimidin-8(7H)-yl)ethyl)phenyl)-4-(dimethylamino)but-2-enamide]	8.92	9.00
C=CC(=O)Nc1ccc(CCn2c(=O)c(-c3c(Cl)c(OC)cc(OC)c3Cl)cc3cnc(NCC4(O)CCN(C)CC4)nc32)cc1 [Example 98, N-(4-(2-(6-(2,6-dichloro-3,5-dimethoxyphenyl)-2-(((4-hydroxy-1-methylpiperidin-4-yl)methyl)-amino)-7-oxopyrido[2,3-d]pyrimidin-8(7H)-yl)ethyl)phenyl)acrylamide]	9.52	7.79
C=CC(=O)Nc1cnc(CCn2c(=O)c(-c3cc(OC)cc(OC)c3Cl)cc3cnc(NCCN4CCOCC4)nc32)cn1 [Example 47, N-(5-(2-(6-(2-chloro-3,5-dimethoxyphenyl)-2-((2-morpholinoethyl)amino)-7-oxopyrido[2,3-d]pyrimidin-8(7H)-yl)ethyl)pyrazin-2-yl)acrylamide]	8.52	7.08
CNc1ncc2cc(-c3cc(OC)cc(OC)c3Cl)c(=O)n(CCc3ccc(NS(=O)(=O)C=C(C)C)cc3)c2n1 [Example 45, N-(4-(2-(6-(2-chloro-3,5-dimethoxyphenyl)-2-(methylamino)-7-oxopyrido[2,3-d]pyrimidin-8(7H)-yl)ethyl)phenyl)-2-methylprop-1-ene-1-sulfonamide]	8.40	7.32
C=CC(=O)Nc1ccc(CCn2c(=O)c(-c3c(Cl)c(OC)cc(OC)c3Cl)cc3cnc(NC(C)(CO)CO)nc32)nc1 [Example 99, N-(6-(2-(6-(2,6-dichloro-3,5-dimethoxyphenyl)-2-((1,3-dihydroxy-2-methylpropan-2-yl)-amino)-7-oxopyrido[2,3-d]pyrimidin-8(7H)-yl)ethyl)pyridin-3-yl)acrylamide]	8.92	8.59
C=CC(=O)Nc1ccc(CCn2c(=O)c(-c3c(Cl)c(OC)cc(OC)c3Cl)cc3cnc(NC(CC)(CO)CO)nc32)nc1 [Example 100, N-(6-(2-(6-(2,6-dichloro-3,5-dimethoxyphenyl)-2-((1-hydroxy-2-(hydroxymethyl)-butan-2-yl)amino)-7-oxopyrido[2,3-d]pyrimidin-8(7H)-yl)ethyl)pyridin-3-yl)acrylamide]		7.58
C=CC(=O)Nc1cccc(CCn2c(=O)c(-c3cc(OC)cc(OC)c3Cl)cc3cnc(NCCN4CCOCC4)nc32)c1 [Example 35, N-(3-(2-(6-(2-chloro-3,5-dimethoxyphenyl)-2-((2-morpholinoethyl)amino)-7-oxo-pyrido[2,3-d]pyrimidin-8(7H)-yl)ethyl)phenyl)acrylamide]	8.22	8.44
C=CS(=O)(=O)Nc1ccc(CCn2c(=O)c(-c3cc(OC)cc(OC)c3Cl)cc3cnc(NC)nc32)cc1 [Example 20, N-(4-(2-(6-(2-chloro-3,5-dimethoxyphenyl)-2-(methylamino)-7-oxopyrido[2,3-d]pyrimidin-8(7H)-yl)ethyl)phenyl)ethenesulfonamide]	8.47	7.61
C=CC(=O)Nc1ccc(CCn2c(=O)c(-c3cc(OC)cc(OC)c3Cl)cc3cnc(NCC(C)(C)O)nc32)cn1 [Example 28, N-(5-(2-(6-(2-chloro-3,5-dimethoxyphenyl)-2-((2-hydroxy-2-methylpropyl)amino)-7-oxopyrido[2,3-d]pyrimidin-8(7H)-yl)ethyl)pyridin-2-yl)acrylamide]	8.37	8.42
C=CC(=O)Nc1ccc(CCn2c(=O)c(-c3cc(OC)cc(OC)c3Cl)cc3cnc(NCCO)nc32)nc1 [Example 104, N-(6-(2-(6-(2-chloro-3,5-dimethoxyphenyl)-2-((2-hydroxyethyl)amino)-7-oxopyrido[2,3-d]pyrimidin-8(7H)-yl)ethyl)pyridin-3-yl)acrylamide]	9.10	7.87
C=CC(=O)Nc1ccc(CCn2c(=O)c(-c3c(Cl)c(OC)cc(OC)c3Cl)cc3cnc(NCC)nc32)nc1 [Example 79, N-(6-(2-(6-(2,6-dichloro-3,5-dimethoxyphenyl)-2-(ethylamino)-7-oxopyrido[2,3-d]pyrimidin-8(7H)-yl)ethyl)pyridin-3-yl)acrylamide]	9.70	8.47
C=CC(=O)Nc1ccc(CCn2c(=O)c(-c3cc(OC)cc(OC)c3Cl)cc3cnc(NCC(C)(C)O)nc32)nc1 [Example 109, N-(6-(2-(6-(2-chloro-3,5-dimethoxyphenyl)-2-((2-hydroxy-2-methylpropyl)amino)-7-oxopyrido[2,3-d]pyrimidin-8(7H)-yl)ethyl)pyridin-3-yl)acrylamide]	8.80	8.46
